Experimental data as given in patent US5245034A, “Compound having vessel smooth muscle relaxation activity” (Hidaka; Kiroyoshi, priority 1988, dated 1993).
Where a name gives a salt, the structure may show the parent alone.

Columns and labels:
[1] = target: Calmodulin-Dependent Phosphodiesterase (Ca^2+ PDE); assay: Calmodulin-Dependent Phosphodiesterase Inhibition (Ca^2+ PDE); type: biochemical, rat; conditions: [^3 H]-cGMP, 30° C.
Description: Phosphodiesterase (Ca^2+ PDE)Ca^2+ PDE was partially purified from the brain of rat by DEAE-Sepharose column chromatography.
Calmodulin was purified from the calf brain using a calmodulin inhibitor W-7 affinity column.
A reaction mixture contained 20 μl of 500 mM Tris-HCl (pH 8.0), 20 μl of 50 mM MgCl2, 20 μl of 2 mM CaCl2 (or 10 mM EGTA), 20 μl of 1 mg/ml bovine serum albumin, PDE, […] of calmodulin, test sample and distilled water to make total volume 200 μl. To the mixture was added 20 μl of 4 μM [^3 H]-cGMP (2.5 μCi/ml), the mixture was incubated at 30° C. for 15 minutes, and then heated in boiling water for 3 to 5 minutes to terminate the reaction, and cooled in ice-water bath. 20 μg of 5'-nucleotidase (Snake venum) was added to the mixture, and the mixture was again incubated at 30° C. for 10 minutes. After addition of about 2 ml of water, the sample was applied to a cation exchange resin column (Biorad AG.AG50W-X4 to adsorbe the [^3 H]-guanosine and additionally about 2 ml of washing water for the sample was added to the column. The column was washed with about 20 ml of water, and the adsorbed [^3 H]-guanosine was eluted with 3 ml of 3N NH4 OH, and the elute was directly received by a vial. After an addition of 10 ml of an emulsified scintillation solution (ACS-II, AMERSHAM) the radio activity was measured by a scintillation counter LS7500 (Beckmann). The enzyme activity in the presence of calmodulin was taken as […], and a concentration of a test compound in μM which provides a 50% inhibition was expressed as IC50.

[2] = test system: superior mesenteric artery (contracted by potassium chloride); assay: Vessel Smooth Muscle Relaxation Action (V.R.); type: cell-based, rabbit; conditions: Oryctolagus cuniculus; concentration relaxing KCl-contracted strain to 50%; cumulative administration; read-out: V.R. (ED50)
Text: The specimen was suspended by loading a strain in Krebs-Henseleit solution through which an oxygen gas containing 5% carbon dioxide was bubbled. The specimen was contracted by adding potassium chloride to maintain a predetermined strain. Thereafter, a test compound was cumulatively administrated.

| IC50 [1] | EC50 [2] | Compound |
| --- | --- | --- |
| 53 µM | 12 µM | CN(C(Cc1cnc[nH]1)CN1CCN(c2ccccc2)CC1)S(=O)(=O)c1cccc2cnccc12 (centres unmarked) [Example 4, N-[1-(Imidazol-4(5)-Yl-Methyl)-2-(4 -Phenylpiperazinyl)Ethyl]-N-Methyl-5-Isoquinoline Sulfonamide] |
| 59 µM |  | O=C(C(Cc1ccc([N+](=O)[O-])cc1)NS(=O)(=O)c1cccc2cnccc12)N1CCN(c2ccccc2)CC1 (centres unmarked) [Example 11, 1-[N-(5-Isoquinolinesulfonyl)-P-Nitrophenylalanyl]-4-Phenylpiperazine] |
| 15 µM | 1.2 µM | CN(C(Cc1ccc(N)cc1)C(=O)N1CCN(c2ccccc2)CC1)S(=O)(=O)c1cccc2cnccc12 (centres unmarked) [Example 13, 1-[P-Amino-N-(5-Isoquinolinesulfonyl)-N-Methylalanyl]-4-Phenylpiperazine] |
| 43 µM |  | Cc1ccc(S(=O)(=O)Nc2ccc(CC(NS(=O)(=O)c3cccc4cnccc34)C(=O)N3CCN(c4ccccc4)CC3)cc2)cc1 (centres unmarked) [Example 15, 1-[N-(5-Isoquinolinesulfonyl)-P-(P-Toluenesulfonylamino)Phenylalanyl]-4-Phenylpiperazine] |
| 75 µM |  | Cc1ccc(COC2CCN(CC(Cc3ccc(O)cc3)NS(=O)(=O)c3cccc4cnccc34)CC2)cc1 (centres unmarked) [Example 85, N-{1-(P-Hydroxybenzyl)-2-{4-(P-Methylbenzyloxy)Piperidino]Ethyl}-Isoquinolinesulfonamide] |
| 63 µM |  | CN(C(Cc1ccc(OS(=O)(=O)c2cccc3cnccc23)cc1)CN1CCC(c2ccccc2)CC1)S(=O)(=O)c1cccc2cnccc12 (centres unmarked) [Example 92, N-{1-[p-(5-isoquinolinesulfonyloxy)benzyl]-2-(4-phenylpiperidino)ethyl}-N-methyl-5-isoquinolinesulfonamide] |
|  | 95 µM | CN(C(Cc1ccc(O)cc1)CN1CCC(O)CC1)S(=O)(=O)c1cccc2cnccc12 (centres unmarked) [Example 100] |
|  | 29 µM | COc1ccc(CC(CN2CCC(O)CC2)N(C)S(=O)(=O)c2cccc3cnccc23)cc1 (centres unmarked) [Example 101] |
|  | 1.5 µM | O=C(OCc1ccccc1)N1CCCN(CC(Cc2ccc(O)cc2)NS(=O)(=O)c2cccc3cnccc23)CC1 (centres unmarked) [Example 116, N-{2-(4-benzyloxycarbonylhomopiperazinyl)-1-(p-hydroxybenzyl)ethyl}-5-isoquinolinesulfonamide] |
|  | 19 ± 3 µM | COc1ccc(CC(NS(=O)(=O)c2cccc3cnccc23)C(=O)N2CCCN(C(=O)Cc3ccccc3)CC2)cc1 (centres unmarked) [Example 120, 1-[N-(5-Isoquinolinesulfonyl)-O-Methyl]Tyrosyl-4-Phenylacetylhomopiperazine] |
|  | 11 µM | O=C([C@H](Cc1ccc(O)cc1)NS(=O)(=O)c1cccc2cnccc12)N1CCCN(CCCc2ccccc2)CC1 [Example 124, 1-[N-(5-Isoquinolinesulfonyl)Tyrosyl]-4-(3-Phenylpropyl)Homopiperazine] |
|  | 9.2 µM | COc1ccc(N2CCN(CC(Cc3ccc(N4C(=O)c5ccccc5C4=O)cc3)NS(=O)(=O)c3cccc4cnccc34)CC2)cc1 (centres unmarked) [Example 125, N-{2-[4-(P-Methoxyphenyl)Piperazinyl]-1-(P-Phthalimidebenzyl)ethyl}-5-isoquinolinesulfonamide] |
|  | 1.8 µM | COc1ccc(N2CCN(CC(Cc3ccc(N)cc3)N(C)S(=O)(=O)c3cccc4cnccc34)CC2)cc1 (centres unmarked) [Example 128, N-{1-(p-aminobenzyl)-2-[4-(p-methoxyphenyl)piperazinyl]ethyl}-N-methyl-5-isoquinolinesulfonamide] |
|  | 0.82 µM | COc1ccc(N2CCN(CC(Cc3ccc(NS(=O)(=O)c4cccc5cnccc45)cc3)N(C)S(=O)(=O)c3cccc4cnccc34)CC2)cc1 (centres unmarked) [Example 129, N-{1-[p-(5-isoquinolinesulfonylaminobenzyl)]-2-[4-(p-methoxyphenyl)piperazinyl]ethyl}-N-methyl-5-isoquinolinesulfonamide] |
|  | 13 µM | COc1ccc(N2CCN(CC(Cc3ccc(NS(=O)(=O)c4cccc5cnccc45)cc3)NS(=O)(=O)c3cccc4cnccc34)CC2)cc1 (centres unmarked) [Example 130, N-{1-[p-(5-isoquinolinesulfonylaminobenzyl)]-2-[4-(p-methoxyphenyl]piperazinyl]ethyl}-5-isoquinolinesulfonamide] |
|  | 1.5 µM | COc1ccc(N2CCN(CC(Cc3ccc(N(C)S(=O)(=O)c4cccc5cnccc45)cc3)N(C)S(=O)(=O)c3cccc4cnccc34)CC2)cc1 (centres unmarked) [Example 131, N-[[1-{P-[N-5-Isoquinolinesulfonyl)-N-(Methylamino)Benzyl]}-2-[4-(P-Methoxyphenylpiperazinyl]Ethyl]]-N-Methyl-5-Isoquinolinesulfonamide] |
|  | 2.8 µM | CN(c1ccccc1NCC=Cc1cccnc1)S(=O)(=O)c1cccc2cnccc12 [Example 146, N-{2-[3-(3-pyridyl)allylamino)phenyl}-N-methyl-5-isoquinolinesulfonamide] |
|  | 4.7 µM | CC(C=Cc1ccc2c(c1)OCO2)NCCNS(=O)(=O)c1cccc2cnccc12 (centres unmarked) [Example 161] |

| IC50 [1] | EC50 [2] | Compound |
| --- | --- | --- |
|  | 35 µM | CC(C=Cc1ccccn1)NCCNS(=O)(=O)c1cccc2cnccc12 (centres unmarked) [Example 162, N-{2-[1-Methyl-3-(2-Pyridyl)-2-Propenylamino]Ethyl}-5-Isoquinolinesulfonamide] |
|  | 31 µM | CC(C=Cc1ccncc1)NCCNS(=O)(=O)c1cccc2cnccc12 (centres unmarked) [Example 163, N-{2-[1-Methyl-3-(4-Pyridyl)-2-Propenylamino]ethyl}-5-Isoquinolinesulfonylamide] |
|  | 4.1 µM | CC(C=Cc1cccs1)NCCNS(=O)(=O)c1cccc2cnccc12 (centres unmarked) [Example 164, N-{2-[1-Methyl-3-(2-Thienyl)-2-Procenylamino]ethyl}-5-Isoquinolinesulfonamide] |
|  | 11 µM | CC(C=Cc1ccco1)NCCNS(=O)(=O)c1cccc2cnccc12 (centres unmarked) [Example 165, N-{2-[3-(2-Furyl)-1-Methyl-2-Propenylamino]Ethyl}-5-Isoquinolinesulfonamide] |
|  | 4.6 µM | COc1ccc(C=CC(C)NCCNS(=O)(=O)c2cccc3cnccc23)cc1 (stereo not drawn) [Example 169, N-2-(4-Methoxy-α-Methylcinnamylamino)ethyll-5-Isoquinolinesulfonamide] |
|  | 5.2 µM | CC(C=Cc1ccc(O)cc1)NCCNS(=O)(=O)c1cccc2cnccc12 (centres unmarked) [Example 170] |
|  | 5.4 µM | CC(C=Cc1ccccc1)NCCCNS(=O)(=O)c1cccc2cnccc12 (stereo not drawn) [Example 171, N-[3-(α-Methylcinnamylamino)Propyl]-5-Isoquinolinesulfonamide] |
|  | 11 µM | CN(C)c1ccc(C=CCNCCNS(=O)(=O)c2cccc3cnccc23)cc1 [Example 174] |
|  | 17 µM | COCCOCOc1ccc(C=CCNCCNS(=O)(=O)c2cccc3cnccc23)cc1 [Example 182, N-{2-[4-(2-Methoxyethoxy)Methoxycinnamylamino]Ethyl}-5-Isoquinolinesulfonamide] |
|  | 2.8 µM | O=S(=O)(NCCNCC=Cc1ccc(O)cc1)c1cccc2cnccc12 [Example 183, N-[2-(4-Hydroxycinnamylamino)ethyl]-5-Isoquinolinesulfonamide] |
|  | 0.21 µM | COc1cc(C=CCNCCNS(=O)(=O)c2cccc3cnccc23)cc(OC)c1OC [Example 185, N-[2-(3,4,5-Trimethoxycinnamylamino)ethyl]-5-Isoquinolinesulfonamide] |
|  | 4 µM | O=S(=O)(NCCCNCC=Cc1ccccc1)c1cccc2cnccc12 [Example 188, N-(3-Cinnamylaminopropyl)-5-Isoquinolinesulfonamide] |
|  | 0.2 µM | O=S(=O)(NCCN(CC#Cc1ccc(Cl)cc1)CC#Cc1ccc(Cl)cc1)c1cccc2cnccc12 [Example 189-II, N-{2-[Bis-(3-((4-Chlorophenyl))-2-Propynyl)Amino]Ethyl}-5-Isoquinolinesulfonamide] |
|  | 0.19 µM | CN(CC=Cc1ccc(Cl)cc1)CCNS(=O)(=O)c1cccc2cnccc12 [Example 190, N-[2-(4-Chloro-N-Methylcinnamylamino)ethyl]-5-Isoquinolinesulfonamide] |
| 80 µM |  | O=S(=O)(NCCN(CC=Cc1ccc(Cl)cc1)Cc1ccc(O)cc1)c1cccc2cnccc12 [Example 194, N-{2-[4-Chloro-N-(4-Hydroxybenzyl)Cinnamylamino]ethyl}-5-Isoquinolinesulfonamide] |
|  | 3.2 µM | O=S(=O)(NCCNCC=Cc1ccccc1)c1cccc2cnccc12 [Example 201, N-(2-Cinnamylaminoethyl)-5-Isoquinolinesulfonamide.1/2 Fumarate] |
|  | 1.3 µM | CC(C=Cc1ccccc1)NCCNS(=O)(=O)c1cccc2cnccc12 (stereo not drawn) [Example 202, N-[2-(α-Methylcinnamylamino)Ethyl]-5-Isoquinolinesulfonamide 1/2 Fumarate] |

| Compound | IC50 [1] | EC50 [2] |
| --- | --- | --- |
| CC(=O)Oc1ccc(CC(CN2CCC(OC(C)=O)CC2)N(C)S(=O)(=O)c2cccc3cnccc23)cc1 (centres unmarked) [Example 102, N-[1-(P-Acetoxybenzyl)-2-(4-Acetoxypiperidino)Ethyl]-N-Methyl-5-Isoquinolinesulfonamide] |  | 24 µM |
